Laboratory results: the PolyMetriX glass transition set
± gives the standard deviation of the reports.

Going from *c1nc(-c2ccccc2)nc(N(CCCCN(*)c2ccccc2)c2ccccc2)n1 (repeat unit) to *C(=O)c1ccc(C(=O)N(*)c2ccccc2)c(Sc2ccccc2)c1 (repeat unit), the glass transition temperature rises from 94.00 °C to 152.00 °C.

First: *Nc1ccc(C(C)(C)c2cccc(C(C)(C)c3ccc(Nc4ccc(C(=O)c5ccc(C(=O)c6ccc(*)cc6)cc5)cc4)cc3)c2)cc1 (repeat unit)
Second: *c1ccc(Oc2ccc(C(C)(C)c3ccc(Oc4ccc(-c5nnc(*)n5-c5ccc(C)cc5)cc4)cc3)cc2)cc1 (repeat unit)
The glass transition temperature of the first is lower: 177.00 °C for the first, 205.00 °C for the second.

Going from *CC(*)(C)C(=O)OCC(C)(C)C (repeat unit) [Poly(neopentyl methacrylate) ] to *CC(C)(CCC)C(=O)O* (repeat unit), the glass transition temperature falls from 33 ± 3.7 °C to 1.90 °C.

Compared with *c1ccc(C(c2ccc(N3C(=O)c4ccc(-c5ccc6c(c5)C(=O)N(*)C6=O)cc4C3=O)cc2)(C(F)(F)F)C(F)(F)F)cc1 (repeat unit), *c1ccc(Oc2ccc(N3C(=O)c4ccc(P(=O)(c5ccccc5)c5ccc6c(c5)C(=O)N(*)C6=O)cc4C3=O)cc2)cc1 (repeat unit) is lower in glass transition temperature: 343.00 °C for the first, 318.00 °C for the second.

Compared with *CCCCCCCCOc1ccc(CCc2ccc(O*)cc2C)cc1 (repeat unit), *CC(*)C(=O)OCCCCCCOc1ccc(/N=N/c2ccc([N+](=O)[O-])cc2)cc1 (repeat unit) is higher in glass transition temperature: -12.00 °C for the first, 35.80 °C for the second.

First: *c1ccc(Oc2ccc(Oc3ccc(Oc4ccc(N5C(=O)C6CCC(C7CCC8C(=O)N(*)C(=O)C8C7)CC6C5=O)cc4)cc3)cc2)cc1 (repeat unit)
Second: *c1ccc(Oc2ccc(N3C(=O)c4cccc(Oc5ccc(Oc6cccc7c6C(=O)N(*)C7=O)cc5)c4C3=O)cc2)cc1 (repeat unit)
The glass transition temperature of the first is lower: 217.00 °C for the first, 254.00 ± 15 °C for the second.

First: *OC(=O)C(C)NC(=O)CCCCCCCCC(=O)NC(C)C(=O)OC1COC2C(*)COC12 (repeat unit)
Second: *OC(=O)OCCCCOC(=O)OC1COC2C(*)COC12 (repeat unit)
The glass transition temperature of the first is higher: 57.00 °C for the first, 49.00 °C for the second.

Going from *CCCCCCCCCCOC(=O)CC/C=C/CCC(=O)O* (repeat unit) to *CCCCCCCCCCOC(=O)CCCCCCCCC(=O)O* (repeat unit), the glass transition temperature falls from -15.00 °C to -54.00 °C.

Compared with *CC(CC)S* (repeat unit), *CCSS* (repeat unit) is higher in glass transition temperature: -47.00 °C for the first, -27.00 °C for the second.

First: *CC(*)C(=O)OCCCOc1ccc(C(=O)OCCCC(F)(F)C(F)(F)C(F)(F)C(F)(F)C(F)(F)C(F)(F)C(F)(F)C(F)(F)F)cc1 (repeat unit)
Second: *CC(O)COC(=O)CCCCCCCCCCC(=O)OCC(O)COc1ccc(O*)cc1 (repeat unit)
The glass transition temperature of the first is higher: 48.00 °C for the first, 10.00 °C for the second.

First: *C(=O)Nc1cccc(NC(=O)c2ccc3c(c2)C(=O)N(c2ccc(Oc4cccc5c(N6C(=O)c7ccc(*)cc7C6=O)cccc45)cc2)C3=O)n1 (repeat unit)
Second: *C(=O)Nc1ccc(-c2ccc(NC(=O)c3ccc4c(c3)C(=O)N(c3cccc(P(=O)(c5ccccc5)c5cccc(N6C(=O)c7ccc(*)cc7C6=O)c5)c3)C4=O)cc2)cc1 (repeat unit)
The glass transition temperature of the first is higher: 293.00 °C for the first, 253.00 °C for the second.

Going from *c1ccc(C(=O)OCCCCCCCCOc2ccc(/C=C3\CC/C(=C\c4ccc(OCCCCCCCCOC(=O)c5ccc(-c6nnc(*)o6)cc5)cc4)C3=O)cc2)cc1 (repeat unit) to *c1ccc(Oc2ccc(NC(=O)c3ccc(C(=O)Nc4ccc(Oc5ccc(-c6nnc(*)o6)cc5)cc4)c(Oc4ccccc4)c3)cc2)cc1 (repeat unit), the glass transition temperature rises from 99.00 °C to 245.00 °C.

First: *O[Si](C)(C)O[Si](C)(C)O[Si](C)(C)O[Si](C)(C)C#Cc1ccc(C#C[Si](*)(C)C)cc1 (repeat unit)
Second: *C/C=C/C[Si](*)(C)c1ccccc1 (repeat unit)
The glass transition temperature of the first is higher: 84.00 °C for the first, -1.00 °C for the second.

Compared with *Oc1cccc(Oc2ccc3c(=O)n4c5cc(-c6ccc7c(c6)nc6c8ccc(*)c9cccc(c(=O)n76)c98)ccc5nc4c4cccc2c34)c1 (repeat unit), *Oc1ccc(C2(c3ccc(Oc4ccc5c(=O)n6c7cc(-c8ccc9c(c8)nc8c%10ccc(*)c%11cccc(c(=O)n98)c%11%10)ccc7nc6c6cccc4c56)cc3)c3ccccc3-c3ccccc32)cc1 (repeat unit) is higher in glass transition temperature: 396.50 °C for the first, 421.00 °C for the second.

First: *c1ccc(N2C(=O)c3ccc(C(=O)c4ccc5c(c4)C(=O)N(c4ccc(-c6nc7cc(S(=O)(=O)c8ccc9nc(-c%10ccccc%10)c(*)nc9c8)ccc7nc6-c6ccccc6)cc4)C5=O)cc3C2=O)cc1 (repeat unit)
Second: *C(=O)c1ccc2c(c1)C(=O)N(c1ccc(-c3ccc(Oc4ccc(C5(C)CC(C)(C)c6ccc(Oc7ccc(-c8ccc(N9C(=O)c%10ccc(*)cc%10C9=O)cc8)cc7C(F)(F)F)cc65)cc4)c(C(F)(F)F)c3)cc1)C2=O (repeat unit)
The glass transition temperature of the first is lower: 240.00 °C for the first, 252.00 °C for the second.

First: *c1ccc2c(c1)Sc1cc(-c3sc4cc(*)sc4c3CCCCC)ccc1N2CCCCCC (repeat unit)
Second: *c1ccc(-c2sc(-c3cc(SCCCC)c(*)s3)cc2SCCCC)cc1 (repeat unit)
The glass transition temperature of the first is lower: 126.00 °C for the first, 129.00 °C for the second.

Compared with *CC(OC=O)C(COC(=O)O*)OC=O (repeat unit), */C=C/C(C(=O)OCC)C(*)C(=O)OCC (repeat unit) is lower in glass transition temperature: 54.30 °C for the first, 6.00 °C for the second.

Going from *Oc1ccc(NC(=O)c2ccc(OC3COC4C(Oc5ccc(C(=O)Nc6ccc(OC7COC8C(*)COC78)cc6)cc5)COC34)cc2)cc1 (repeat unit) to *Oc1ccc(OC(=O)c2ccc(C(*)=O)cc2Sc2ccccc2)cc1 (repeat unit), the glass transition temperature rises from 165.00 °C to 181.00 °C.

Compared with *CCC(C)O* (repeat unit), *CC(*)(F)F (repeat unit) [Poly(vinylidene fluoride)] is higher in glass transition temperature: -50.00 °C for the first, -32.77 ± 2.3 °C for the second.

*c1ccc(Oc2ccc(Oc3ccc(N4C(=O)c5ccc(Oc6ccc(C7(c8ccc(Oc9ccc%10c(c9)C(=O)N(*)C%10=O)cc8)CCCCCCCCCCC7)cc6)cc5C4=O)cc3)c(C(C)(C)C)c2)cc1 (repeat unit) and *c1ccc(Oc2ccc(-c3ccc(Oc4ccc(N5C(=O)c6ccc(Oc7cc(C(C)(C)C)c(Oc8ccc9c(c8)C(=O)N(*)C9=O)cc7C(C)(C)C)cc6C5=O)cc4)cc3)cc2)cc1 (repeat unit) are the same in glass transition temperature: 262.00 °C for the first, 262.00 °C for the second.

First: *Cc1cc(COC(=O)Nc2ccc(Cc3ccc(NC(=O)O*)cc3)cc2)cc(C(C)(C)C)c1 (repeat unit)
Second: *C(=O)c1ccc2c(c1)C(=O)N(c1cccc(C(=O)N(C)c3ccc(N4C(=O)c5ccc(*)cc5C4=O)cc3)c1)C2=O (repeat unit)
The glass transition temperature of the first is lower: 114.00 °C for the first, 260.50 °C for the second.

Compared with *CC(*)c1ccccc1C(=O)OCCC (repeat unit), *CC(O)COc1c(C)cc(S(=O)(=O)c2cc(C)c(O*)c(C)c2)cc1C (repeat unit) is higher in glass transition temperature: 108.00 °C for the first, 152.50 °C for the second.

Compared with *c1ccc(-c2ccc(C(*)(C(F)(F)F)C(F)(F)F)cc2)cc1 (repeat unit), *OC1CCC(OC(=O)CCCCCCCCC(*)=O)CC1 (repeat unit) is lower in glass transition temperature: 264.00 °C for the first, 66.00 °C for the second.

*CCCCCCCCCCCCCCNC(=O)NCCCCCCNC(=O)N* (repeat unit) showed a glass transition temperature of 47.00 °C.
